Assay results from PubChem BioAssay (NCI).
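Five concentrations, 48 hours, 96-well plates. Definition used: TGI = concentration required for complete inhibition of growth.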

Assays:
Test in all cases: inhibition of tumour cell growth, NCI panel, 48 h
[1] = tested on: A498 renal
[2] = tested on: ACHN renal
[3] = tested on: BT-549 breast
[4] = tested on: CCRF-CEM leukemia
[5] = tested on: DU-145 prostate
[6] = tested on: EKVX NSCLC
[7] = tested on: HCC-2998 colon
[8] = tested on: HCT-116 colon
[9] = tested on: HCT-15 colon
[10] = tested on: HL-60(TB) leukemia
[11] = tested on: HOP-62 NSCLC
[12] = tested on: HS 578T breast
[13] = tested on: HT29 colon
[14] = tested on: K-562 leukemia
[15] = tested on: KM12 colon
[16] = tested on: LOX IMVI melanoma
[17] = tested on: M14 melanoma
[18] = tested on: MALME-3M melanoma
[19] = tested on: MCF7 breast
[20] = tested on: MDA-MB-231 breast
[21] = tested on: MDA-MB-435
[22] = tested on: MDA-N
[23] = tested on: MOLT-4 leukemia
[24] = tested on: NCI-H226 lung
[25] = tested on: NCI-H23 lung
[26] = tested on: NCI-H460 lung
[27] = tested on: NCI-H522 lung
[28] = tested on: OVCAR-3 ovarian
[29] = tested on: OVCAR-5 ovarian
[30] = tested on: RPMI-8226 leukemia
[31] = tested on: RXF 393 renal
[32] = tested on: SF-268 CNS
[33] = tested on: SF-539 CNS
[34] = tested on: SK-MEL-2 melanoma
[35] = tested on: SK-MEL-28 melanoma
[36] = tested on: SK-OV-3 ovarian
[37] = tested on: SN12C renal
[38] = tested on: SNB-19 CNS
[39] = tested on: SNB-75 CNS
[40] = tested on: SR leukemia
[41] = tested on: T-47D breast
[42] = tested on: TK-10 renal
[43] = tested on: U251 CNS
[44] = tested on: UACC-257 melanoma
[45] = tested on: UACC-62 melanoma
[46] = tested on: UO-31 renal
[47] = tested on: 786-0 renal
[48] = tested on: A549 NSCLC
[49] = tested on: CAKI-1 renal
[50] = tested on: COLO 205 colon
[51] = tested on: HOP-92 NSCLC
[52] = tested on: IGROV1 ovarian
[53] = tested on: OVCAR-4 ovarian
[54] = tested on: OVCAR-8 ovarian
[55] = tested on: PC-3 prostate
[56] = tested on: SF-295 CNS
[57] = tested on: SK-MEL-5 melanoma
[58] = tested on: SW-620 colon

Measured: TGI

CCOC(=O)NC(Nc1ncccn1)(C(F)(F)F)C(F)(F)F
not listed: [47] | [48] | [49] | [50] | [51] | [52] | [53] | [54] | [55] | [56] | [57] | [58]
> 100 µM: all other assays above

CCOC(=O)c1cnn2c1ncc1c(=O)n(NC(N)=O)ccc12
not listed: [7] | [14] | [30] | [31] | [40]
> 100 µM: all other assays above
